# Entries after “also recorded” stand apart in the source; their conditions may differ.
# Legend:
# [1] = test system: Giardia BAH2c2 trophozoites; assay: Electron microscopy (TEM, SEM) of trophozoites; assay type: cell-based, Giardia duodenalis
# Method: To determine any effects robenidine has on the ultrastructure of Giardia trophozoites, transmission electron microscopy (TEM) was performed. Giardia BAH2c2 trophozoites were exposed to 3 X IC50 of robenidine or metronidazole for 1 h and placed on ice for 40 min to detach trophozoites then washed twice with PBS (900×g, 10 min 4 °C) and fixed with a combination of glutaraldehyde and formaldehyde overnight. Cells were washed with PBS +4% sucrose before fixation with osmium tetroxide for 1 h. Samples were dehydrated through a graded ethanol series (70–100%) followed by suspension in propylene oxide for ten minutes. Samples were centrifuged and suspended in 1:1 mixture of propylene oxide and epoxy resin for an hour before centrifugation. Following overnight suspension in 100% epoxy resin samples were resuspended in fresh resin and polymerized at 70 °C for 24 h. After sectioning samples were stained with uranyl acetate and lead citrate. Sections were imaged with a FEI tecnai G2 Spirit Transmission Electron microscope (Adelaide Microscopy, University of Adelaide).
# To determine the effect that robenidine and metronidazole has on the cell surface of the Giardia trophozoites, scanning electron microscopy (SEM) was performed as follows. Giardia BAH2c2 trophozoites were prepared as for TEM, however they were exposed to compounds for 2 or 4 h. […]
# [2] = In vitro cytotoxicity (WST-1), human hepatocellular carcinoma; assay type: cell-based; conditions: Hep G2 human hepatocellular carcinoma cells, 24 h exposure
# Method: Cells were passaged every 3 days. Assays were performed in 96 well plates in duplicate. Wells were seeded with 50 000 cells.
# Giardia trophozoites = assay: Morphology of stained trophozoites at 100x magnification; assay type: cell-based, Giardia duodenalis; conditions: at IC50, 100 x magnification
# Method: A second screening method, based on counting adherent trophozoites, was developed and used to validate the primary screen method, modified from earlier adherence assay protocols ([Crouch et al., 1986]). The assay was prepared in 24 well plates with plastic coverslips placed in the bottom. Trophozoites were prepared as above by placing on ice and ∼5 × 10^5 cells/mL were added to each well. Drugs prepared in DMSO were added at the required concentration, with the DMSO concentration never exceeding 1%. Assay plates were incubated for 5 h at 37 °C under anaerobic conditions, the media removed and cells adhering to the coverslips were fixed with glutaraldehyde or methanol. Once the coverslips were dry, cells were stained with a Romanowsky stain variant (Rapid stain), fixed to a glass slide and imaged at 10x or 100x magnification. Images (10x magnification) were processed with DotCount v1.2 software (http://reuter.mit.edu/, 2008–2012 ^© Martin Reuter) to count the number of cells present and data analysed using GraphPad Prism version 6.00 for Windows, GraphPad Software, La Jolla California USA, www.graphpad.com. Images (100x magnification) were assessed for obvious morphological changes.
# Fig. 4 Morphological effect of Robenidine and NCL 099 on Giardia trophozoites. Giardia trophozoites were exposed to each compound for 24 h before fixation with glutaraldehyde and staining following the Diff quik protocol. A-control cells, B – cells treated with metronidazole (IC50, 2 μM), C- robendine treated cells (IC50, 2 μM), D – NCL 099 treated cells (IC50, 3 μM), E − NCL 099 treated cells (2 x IC50).
# [3] = test system: Giardia duodenalis BAH12, assemblage B; assay: Resazurin reduction assay, assemblage B isolate; assay type: cell-based; conditions: BAH12, 24 h
# Method: G. duodenalis (BAH2c2 and BAH12 strain) was cultivated according to the method of Clark and Diamond in Keister's modified TYI-S-33 medium, supplemented with heat inactivated foetal bovine serum (Hyclone™, Thermo Fisher Scientific, Scoresby, Victoria, Australia) at 37 °C in plastic 9 mL screw-capped test tubes (nunc, Thermo Fisher Scientific, Scoresby, Victoria, Australia). Subcultures were performed once a confluent monolayer was observed, approximately 2–3 times per week ([Clark and Diamond, 2002]).
# The in-vitro compound efficacy was determined using a resazurin reduction assay as previously described ([Benere et al., 2007]). The media of confluent cultures was replaced with fresh media and the cultures were placed on ice for 40 min to detach trophozoites. Trophozoites were enumerated using a haemocytometer and 50 000 trophozoites were added to each test well of a 96 well plate. Doubling or tripling dilutions of the test compounds were added to wells beginning at 25 or 50 μM compound concentration (previously prepared in DMSO). Metronidazole and DMSO (vehicle only) were used as controls. Plates were incubated under anaerobic conditions, using anaerobic gas generating sachets, (AnaeroGen, Thermo Fisher Scientific, Scoresby, Victoria, Australia) for 24 h at 37 °C. After incubation the media was removed and replaced with an equal volume of warm PBS. Resazurin (Alamarblue, Thermo Fisher Scientific, Scoresby, Victoria, Australia) was then added at 10% of the total volume of the wells. Plates were further incubated (1.5 h) for colour development and absorbance read at 570 nm and 630 nm. The percentage resazurin reduction was then calculated using the following formula:((εoxi630 x A570) – (εoxi570 x A630))/((εred570 x C630)-([…])) x 100Where: εoxi630 = 34798, εoxi570 = 80586, A570 = absorbance at 570 nm, A630 = absorbance at 630 nm, εred570 = 155677, εred630 = 5494, C630 = absorbance of negative control well at 630 nm and C570 = absorbance of negative control well at 570 nm.
# For the resazurin reduction assay the mean and standard error of the mean were determined with each assay completed in triplicate. The IC50 was calculated using the log (inhibitor) vs. normalised response – variable slope function in Graphpad Prism. For the adherence assay mean and standard error of the mean were calculated and data analysed using an unpaired t-test, relative to untreated control.
# The IC50 of each compound was determined using a resazurin reduction assay, which measures the metabolic activity of cells, using the log (inhibitor) vs. normalised response – variable slope function in Graphpad Prism. The compounds were tested against an assemblage A (BAH2c2, 24 h) and an assemblage B (BAH12, 24 h) isolate (Table 1). […] The effect of the compounds on the proliferation of Giardia trophozoites (BAH2c2) was also determined.
structure (smiles),measurement,setting,value
"N=C(N/N=C/c1ccc(Cl)cc1)N/N=C/c1ccc(Cl)cc1 [Robenidine, robenidine]",Ultrastructural changes by TEM,"[1]; 3 x IC50, 1 h exposure",extreme membrane blebbing
same,Cell surface changes by SEM,"[1]; 3 x IC50, 2 h exposure",extreme membrane blebbing
same,GI50 at 24 h,[2],25.5 µM
same,Morphological effect on stained trophozoites at the IC50,Giardia trophozoites,decrease in the intensity of the membrane stain; also recorded: enlarged nuclei
same,"MLC, Assemblage B",[3],16.6 µM
same,IC50,"[3]; Giardia duodenalis, resazurin metabolic assay",4.7 ± 0.6 µM

# — paper PMC6479099, “Aminoguanidines: New leads for treatment of Giardia duodenalis infection” (International Journal for Parasitology: Drugs and Drug …, 2019)
